Source: patent US8329704B2, “Substituted pyrazinone derivatives for use in MCH-1 mediated diseases” (Janssen Pharmaceutica, N.V., priority 2005, dated 2012)

Biological target: T1, human MCH-1 receptor (Homo sapiens, UniProt Q99705)
T1 construct: expressed in transfected cells
Test: Ca2+ mobilization experiment for the MCH-1 receptor (FLIPR), inhibition of MCH-induced Ca2+ mobilization
Assay type: cell-based
Details: CHO cells stably expressing human MCH-1 receptor, inhibition of MCH-induced Ca2+ response, read-out: MCH-1 pIC50 (converted)
Experimental: The interaction of the compounds of Formula (I) with MCH-1 receptors was assessed in in vitro transient calcium (Ca^2+) mobilization assays in the fluorimetric imaging plate reader (FLIPR) format (Sullivan et al. 1999, Methods Mol Biol 114:125-133). In general, the natural agonist (MCH) is incubated with cells expressing the MCH-1 receptor, which elicits a concentration-dependent transient mobilization of Ca^2+ from internal stores. The interaction of the test compounds with the receptor is assessed in competition experiments. Various concentrations of the test compound are added to the incubation mixture containing the receptor-expressing cells and a submaximal concentration of MCH. The test compound in proportion to its antagonist potency and its concentration inhibits MCH-induced Ca^2+ mobilization.
Chinese Hamster ovary cells (CHO) stably expressing the human MCH-1 receptor are grown in a 1:1 mixture of Dulbecco's Modified Eagles Medium (DMEM) and HAM's F12 medium including Glutamax™ (Invitrogen), supplemented with 10% heat-inactivated fetal bovine serum and 400 μg/ml geneticin.
Twenty-four hours before the experiment, MCH-1 receptor-expressing CHO cells are seeded in 20 μl (5,000 cells per well) into 384-well black wall, clear bottom microtiter plates (Costar). On the day of the experiment, 20 μl per well calcium assay kit containing 10 mM probenicide (Molecular Devices) is added. Cells are loaded for 90 min at 37° C. and 5% CO2 in a cell culture incubator. After loading, 20 μl of serial dilutions of the test compound are added and cells are further incubated for 20 min at room temperature in the dark. After 20 min, 20 μl of a submaximal MCH concentration is added and changes in intracellular calcium are recorded directly in a FLIPR III apparatus (Molecular devices).
Data from assays in the presence of compound were calculated as a percentage of total Ca^2+-responses measured in the absence of test compound. Inhibition curves, plotting percent of total Ca^2+-responses versus the log value of the concentration of the test compound, were automatically generated, and sigmoidal inhibition curves were fitted using non-linear regression. The pIC50 values of test compounds were derived from individual curves.

T1 sequence (Q99705 whole entry): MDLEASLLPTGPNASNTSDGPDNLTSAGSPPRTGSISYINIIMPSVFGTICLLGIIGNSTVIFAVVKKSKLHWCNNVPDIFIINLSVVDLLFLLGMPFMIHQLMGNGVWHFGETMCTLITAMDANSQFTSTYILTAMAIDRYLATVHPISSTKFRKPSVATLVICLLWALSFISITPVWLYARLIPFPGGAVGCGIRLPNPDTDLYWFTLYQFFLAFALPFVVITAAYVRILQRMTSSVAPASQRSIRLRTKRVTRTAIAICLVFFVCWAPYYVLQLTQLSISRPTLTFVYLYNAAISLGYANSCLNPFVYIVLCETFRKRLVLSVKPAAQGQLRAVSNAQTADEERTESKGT

Row | IC50 | SMILES
1 | 0.0794 µM | O=c1c(NCCc2ccccc2)nccn1-c1ccc2c(c1)OCC(CN1CCOCC1)=C2 [3-92]
2 | 0.0501 µM | CN1CCN(CCOc2ccc(-n3ccnc(NCCc4ccccc4)c3=O)cc2Cl)CC1 [3-82]
3 | 0.0631 µM | COc1cc(-n2ccnc(SCCc3ccccc3)c2=O)ccc1N1CCOCC1 [6-10]
4 | 0.126 µM | COc1cc(-n2ccnc(NCCc3ccccc3)c2=O)ccc1N1CCCN(C)CC1 [3-19]
5 | 0.631 µM | COc1cc(-n2ccnc(N3CCC(Oc4ccccc4)CC3)c2=O)ccc1OCCN1CCCC1 [4-02]
6 | 0.0316 µM | COc1cc(-n2ccnc(NCCCOc3ccccc3)c2=O)ccc1OC1CCNCC1 [7-01]
7 | 6.31 µM | COc1cc(-n2ccnc(N3CCC(c4ccccc4OC)C3)c2=O)ccc1OCCN1CCCC1 (stereo not drawn) [4-06]
8 | 0.0794 µM | COc1cc(-n2ccnc(NCCc3ccccc3)c2=O)ccc1N1CCC(N(C)C(C)=O)C1 (stereo not drawn) [3-10]
9 | 0.126 µM | COc1cc(-n2ccnc(NCCc3ccccc3)c2=O)ccc1NCCN1CCCC1 [3-28]
10 | 0.158 µM | COc1cc(-n2ccnc(NCCc3ccccc3)c2=O)ccc1N1CCC(N(C2CC2)C2CC2)C1 (stereo not drawn) [3-18]
11 | 0.126 µM | COc1cc(-n2ccnc(NCCc3ccccc3)c2=O)ccc1OCCCNC(C)=O [3-66]
12 | 0.0631 µM | COc1cc(-n2ccnc(NCCc3ccccc3)c2=O)ccc1N1CCC(NC(C)=O)C1 (stereo not drawn) [3-09]
13 | 0.01 µM | CN[C@H]1CCN(c2ccc(-n3ccnc(SCCc4ccccc4)c3=O)cc2OC)C1 [6-02]
14 | 0.0631 µM | CCCC(=O)NCCOc1ccc(-n2ccnc(NCCc3ccccc3)c2=O)cc1OC [3-39]
15 | 0.1 µM | CN(C1CCN(c2ccc(-n3ccnc(NCCc4ccccc4)c3=O)cc2)C1)S(C)(=O)=O (stereo not drawn) [3-01]
16 | 0.1 µM | O=c1c(NCCc2ccccc2)nccn1-c1ccc(N2CCNCC2)c(Cl)c1 [3-77]
17 | 0.1 µM | O=c1c(NCCc2ccccc2)nccn1-c1ccc(N2CCNCC2)cc1 [3-06]
18 | 0.0501 µM | CCN(C)C1CCN(c2ccc(-n3ccnc(NCCc4ccccc4)c3=O)cc2OC)C1 (stereo not drawn) [3-14]

Row | IC50 | SMILES
19 | 0.631 µM | COc1cccc(C2CCN(c3nccn(-c4ccc(OCCN5CCCC5)c(OC)c4)c3=O)C2)c1 (stereo not drawn) [4-07]
20 | 0.1 µM | COc1cc(-n2ccnc(NCCc3ccccc3)c2=O)ccc1OCCN1CCOC(CO)C1 (stereo not drawn) [3-64]
21 | 0.0316 µM | COc1cc(-n2ccnc(NCCc3ccccc3)c2=O)ccc1C=CCN1CCCC1 [3-22]
22 | 0.2 µM | O=c1c(NCCc2ccccc2)nccn1-c1ccc2nc(N3CCCCC3)ccc2c1 [3-87]
23 | 0.0501 µM | COc1cc(-n2ccnc(NCCc3ccccc3)c2=O)ccc1OCCN1CCC2(CC1)OCCO2 [3-58]
24 | 0.0316 µM | COc1cc(-n2ccnc(NCCc3ccccc3)c2=O)ccc1OCCN(C)C1CC1 [3-42]
25 | 1.26 µM | COc1cc(-n2ccnc(N3CCCC(c4ccccc4)C3)c2=O)ccc1OCCN1CCCC1 (stereo not drawn) [4-01]
26 | 0.0794 µM | CN(C)CCN1CCc2cc(-n3ccnc(NCCOc4ccccc4)c3=O)ccc21 [3-84]
27 | 0.0398 µM | COc1cc(-n2ccnc(NCCc3ccccc3)c2=O)ccc1OCCN1C(C)COCC1C (stereo not drawn) [3-62]
28 | 0.0501 µM | COc1cc(-n2ccnc(NCCc3ccccc3)c2=O)ccc1OCCN(C)CCO [3-37]
29 | 0.0501 µM | COc1cc(-n2ccnc(NCCc3ccccc3)c2=O)ccc1OCCN1CCC(C(N)=O)CC1 [3-53]
30 | 0.02 µM | COc1cc(-n2ccnc(SCCc3ccccc3)c2=O)ccc1C=CCN1CCOCC1 [6-13]
31 | 0.0158 µM | COc1cc(-n2ccnc(SCCc3ccccc3)c2=O)ccc1N1CC[C@@H](N(C)C)C1 [6-06]
32 | 0.126 µM | COc1cc(-n2ccnc(NCCCOc3ccccc3)c2=O)ccc1OC1CCN(C(=O)OC(C)(C)C)CC1 [7-02]
33 | 0.0251 µM | COc1cc(-n2ccnc(NCCc3ccccc3)c2=O)ccc1OCCN1CCC(C(=O)N2CCCC2)CC1 [3-55]
34 | 0.0251 µM | COc1cc(-n2ccnc(NCCc3ccccc3)c2=O)ccc1OCCCN1CCC(F)CC1 [3-72]
35 | 0.0158 µM | COc1cc(-n2ccnc(SCCc3ccccc3)c2=O)ccc1OC1CCN(C)C1 (stereo not drawn) [6-15]

More lines, now with the values behind:

Row | SMILES | IC50
36 | COc1cc(-n2ccnc(NCCCOc3ccc(F)cc3)c2=O)ccc1OCCN1CCCC1 [2-18] | 0.0398 µM
37 | COc1cc(-n2ccnc(NCCOc3ccccc3)c2=O)ccc1N1CCC(N(C)C)C1 (stereo not drawn) [1-10] | 0.1 µM
38 | COc1cc(-n2ccnc(NCCCOc3ccc(Cl)cc3)c2=O)ccc1OCCN1CCCC1 [2-32] | 0.0631 µM
39 | CCCN(C)CCOc1ccc(-n2ccnc(NCCOc3ccccc3)c2=O)cc1 [1-24] | 0.158 µM
40 | COc1cc(-n2ccnc(NCCOc3ccc(Cl)cc3Cl)c2=O)ccc1OCCN1CCCC1 [2-40] | 0.2 µM
41 | COc1cc(-n2ccnc(NCCOc3cccc(Cl)c3)c2=O)ccc1OCCN1CCCC1 [2-30] | 0.0501 µM
42 | COc1cc(-n2ccnc(NCCOc3ccccc3)c2=O)ccc1OCCCN1CCCC(CO)C1 (stereo not drawn) [1-78] | 0.0794 µM
43 | COc1cc(-n2ccnc(CCCc3ccccc3)c2=O)ccc1OCCN1CCCC1 [2-01] | 0.126 µM
44 | COc1cc(-n2ccnc(CCCOc3ccccc3)c2=O)ccc1OCCN1CCCC1 [2-08] | 0.158 µM
45 | O=c1c(NCCOc2ccccc2)nccn1-c1ccc(OCCN(CCO)Cc2ccccc2)cc1 [1-33] | 0.794 µM
46 | COc1cc(-n2ccnc(NCCOc3ccccc3)c2=O)ccc1OCCN(C)C(C)=O [1-61] | 0.1 µM
47 | O=c1c(NCCOc2ccccc2)nccn1-c1ccc(OCCN2CCN(c3ccccc3)CC2)cc1 [1-45] | 0.794 µM
48 | COc1cc(-n2ccnc(NCCOc3ccccc3)c2=O)ccc1OCCCN1CCOCC1 [1-80] | 0.0631 µM
49 | CC(=O)N(C)C1CCN(c2ccc(-n3ccnc(NCCOc4ccccc4)c3=O)cc2)C1 (stereo not drawn) [1-02] | 0.251 µM
50 | COc1cc(-n2ccnc(NCCOc3ccccc3)c2=O)ccc1/C=C/CN1CCOCC1 [1-18] | 0.0398 µM
51 | COc1cc(-n2ccnc(NCCOc3ccccc3)c2=O)ccc1OCCN1CCOCC1 [1-74] | 0.0794 µM

Row | SMILES | IC50
52 | COc1cc(-n2ccnc(CCOc3ccccc3)c2=O)ccc1OCCN1CCCC1 [2-07] | 0.0794 µM
53 | COc1cc(-n2ccnc(NCCOc3ccccc3)c2=O)ccc1OCCN1CCC(F)CC1 [1-70] | 0.0126 µM
54 | COc1cc(-n2ccnc(NCCOc3ccccc3)c2=O)ccc1N1CCC(NC(=O)C(C)C)CC1 [1-15] | 0.1 µM
55 | COc1cc(-n2ccnc(NCCOc3ccccc3)c2=O)ccc1OCCN(C)C(=O)CN(C)C [1-63] | 0.2 µM
56 | O=c1c(NCCOc2ccc(F)cc2)nccn1-c1ccc(OCCN2CCCC2)cc1 [2-17] | 2 µM
57 | CC(C)N(CCOc1ccc(-n2ccnc(NCCOc3ccccc3)c2=O)cc1)C(C)C [1-28] | 0.501 µM
58 | COc1cc(-n2ccnc(NCCOc3ccccc3)c2=O)ccc1OCCN(C)C(=O)c1ccccc1 [1-66] | 0.251 µM
59 | CC(C)C(=O)N(C)C1CCN(c2ccc(-n3ccnc(NCCOc4ccccc4)c3=O)cc2)C1 (stereo not drawn) [1-03] | 0.0398 µM
60 | COc1cc(-n2ccnc(NCCOc3ccccc3)c2=O)ccc1/C=C/CN1CCCC1 [1-17] | 0.0316 µM
61 | O=c1c(NCCOc2ccccc2)nccn1-c1ccc(OCCN2CCC(F)CC2)cc1 [1-39] | 0.2 µM
62 | COc1cc(-n2ccnc(NCCOc3ccccc3)c2=O)ccc1OCCN1CCC(F)(F)CC1 [1-73] | 0.0501 µM
63 | COC(=O)c1cc(-n2ccnc(NCCOc3ccccc3)c2=O)ccc1OCCN1CCCC1 [1-54] | 0.2 µM
64 | COc1cc(-n2ccnc(NCCc3ccc(C(F)(F)F)cc3F)c2=O)ccc1OCCN1CCCC1 [2-43] | 0.794 µM
65 | O=c1c(NCCOc2ccccc2)nccn1-c1ccc(N2CCNCC2)cc1 [1-06] | 2 µM
66 | COc1cc(-n2ccnc(NCCOc3ccccc3)c2=O)ccc1OCCN1CCC(C#N)CC1 [1-71] | 0.1 µM
